# Measurements reported in US5763442A, “Anti-parasitic activity” (Universiteit Van Pretoria, priority 1995, dated 1998).
# Legend:
# [1] = system: P. falciparum (RB-1); experiment: Direct antimalarial activity, flow cytometry, strain RB-1; assay type: cell-based, Plasmodium falciparum
# Procedure: To investigate the direct antimalarial activity of the riminophenazines B669, B4100, B4103, B4112, B4121, B4158 and B4169 against a laboratory strain of P. falciparum the following experiment was done:
# A laboratory strain of P. falciparum (RB-1; obtained from Dr B L Sharp, National Malaria Research Programme, MRC, Durban) was maintained.
# For these experiments malaria cultures of haematocrit 5.0% and initial parasitemia 2.0% were used. The malaria infected erythrocytes (ring stage) were incubated in microtitre plates with serial dilutions of B669, B4100, B4103, B4112, B4121, B4158 and B4169 (0.125-2 μg/ml) for 48 hours and processed for analysis on the flow cytometer as described in Example 3.
# [2] = system: Plasmodium falciparum (RB-9); experiment: 3H-hypoxanthine uptake, chloroquine resistant strain (RB-9 [sic]); assay type: cell-based; settings: for PERCENTAGE INHIBITION (3H-hypoxanthine uptake): RB-9 (so in the source)
# Procedure: (§1) The following experiment was done to confirm previous results which were obtained microscopically and details of which are set out in Example 1.
# (§2) For this experiment the same two strains of P. falciparum, as used in Example 1 (RB-1 and Fab-9) were again used. Infected erythrocytes were diluted with human O-positive red blood cells to a parasitaemia of 0.2-0.9% and suspended to 3% in RPMI containing 44 mg/l hypxanthine and 10% human type serum. Aliquots (100 μl) of the suspension were dispensed into the wells of 96-well microtitre plates. To these suspensions 100 μl of the medium were added containing either chloroquine or B669 alone or a combination of chloroquine and B669. Relevant solvent controls were included. Negative control wells were also included containing uninfected red blood cells. The plates were incubated at 38° C. in a desiccator gassed with 5% O2, 5% CO2 and 90% N2. After 24 hours 100 μl culture medium of each well was replaced with […] of hypoxathine--free medium containing 10% human serum and 0,5μ Ci^3 H-hypoxanthine and incubated for a further 18 hours. The contents of the wells were then harvested on to glass fibre filters. The filters were washed with distilled water, dried, haemoglobin dissolved in a sodium bicarbonate solution and placed in scintillation vials containing 4 ml scintillation fluid and counted for 5 min in a liquid scintillation counter.
# (§3) The percentage inhibition was calculated as follows: [formula] where CPM was the mean of two values of counts per minute for each treatment.
# [3] = system: Plasmodium falciparum (Fab-9); experiment: 3H-hypoxanthine uptake, chloroquine sensitive strain Fab-9; assay type: cell-based; settings: for PERCENTAGE INHIBITION (3H-hypoxanthine uptake): Fab-9
# Procedure: as §1, §2, §3
# [4] = system: Plasmodium falciparum (Fab-9); experiment: as above; assay type: cell-based; settings: read-out: PERCENTAGE INHIBITION (3H-hypoxanthine uptake)
# [5] = system: Plasmodium falciparum (Fab-9); experiment: Microscopic parasitaemia, chloroquine sensitive strain Fab-9 (reversal of chloroquine resistance); assay type: cell-based; settings: for Percentage red blood cells infected with P. falciparum (Fab-9): 24 h
# Procedure: The activity of riminophenazines to reverse chloroquine resistance in Plasmodium falciparum was tested in the following manner:
# A preliminary series of experiments were carried out using two laboratory strains of P. falciparum (RB-1 and Fab-9). These strains were obtained from the Medical Research Council, Durban, where they were characterised as being either mildly resistant or sensitive to chloroquine. The isolates were maintained in suspension culture in known manner (as described by Freese J A, Markus M B and Golenser J, 1991; Bulletin of the World Health Organization 69: 707-712).
# Infected erythrocytes were diluted with human O-positive red blood cells to a parasitaemia of 0.2-0.9% and suspended to 3% in RPMI containing 44 mg/l hypoxanthine and 10% human type O serum. Aliquots (100 μl) of the suspension were dispensed into the wells of 96-well microtitre plates. To these suspensions 100 μl of the medium were added containing either chloroquine or B669 alone or in combination. The final drug concentrations were 31, 62, 125, 250 500 and 1000 nM for chloroquine and 0.125, 0.25, 0.5 and 1.0 μg/ml for B669. Relevant solvent controls were included. The plates were incubated for 24 hours at 38° C. in a desiccator gassed with 5% O2, 5% CO2 and 90% N2. Thin blood smears were prepared from each well, stained with Giemsa stain and the percentage of red blood cells infected by at least one parasite determined microscopically.
# [6] = Plasmodium falciparum, read-out: PERCENTAGE INHIBITION (3H-hypoxanthine uptake)
# [7] = B669 0.125 μg/ml + chloroquine 31 nM
# [8] = B669 0.125 μg/ml + chloroquine 62 nM
# [9] = B669 0.125 μg/ml + chloroquine 250 nM
# [10] = B669 0.125 μg/ml + chloroquine 500 nM
# [11] = B669 0.125 μg/ml + chloroquine 1000 nM
# [12] = B669 0.25 μg/ml + chloroquine 62 nM
# [13] = B669 0.25 μg/ml + chloroquine 250 nM
# [14] = B669 0.25 μg/ml + chloroquine 500 nM
# [15] = B669 0.25 μg/ml + chloroquine 1000 nM
# [16] = B669 0.5 μg/ml + chloroquine 62 nM
# [17] = B669 0.5 μg/ml + chloroquine 125 nM
# [18] = B669 0.5 μg/ml + chloroquine 250 nM
# [19] = B669 0.5 μg/ml + chloroquine 500 nM
# [20] = B669 0.5 μg/ml + chloroquine 1000 nM
# [21] = B669 1.0 μg/ml + chloroquine 31 nM
# [22] = B669 1.0 μg/ml + chloroquine 62 nM
# [23] = B669 1.0 μg/ml + chloroquine 125 nM
# [24] = B669 1.0 μg/ml + chloroquine 250 nM
# [25] = B669 1.0 μg/ml + chloroquine 500 nM
# [26] = B669 1.0 μg/ml + chloroquine 1000 nM
# [27] = B669 0.25 μg/ml + chloroquine 31 nM
# [28] = B669 0.25 μg/ml + chloroquine 125 nM
smiles,measurement,setting,value
"c1ccc(Nc2cc3nc4ccccc4n(-c4ccccc4)c-3cc2=NC2CCCCC2)cc1 [Compound B669, N,5-bis(phenyl)-3,5-dihydro-3-(cyclohexylimino)-2-phenazinamine]",inhibition at 0.5 µg/mL,"[1]; Plasmodium falciparum, 0.5 μg/ml, 48 h, FIG. 2, read-out: inhibition of growth of P. falciparum",> 50%
same,activity against the malaria microorganism Plasmodium falciparum,[1]; summary statement,good activity
same,"increase of sensitivity to chloroquine, chloroquine resistant strain","[2]; 250 nM chloroquine, 0.125-0.5 μg/ml B669",up to three fold
same,"increase of sensitivity to chloroquine, chloroquine resistant strain","[2]; 125 μM (so in the source) chloroquine, 0.5 and 1.0 μg/ml B669",up to ten fold
same,inhibition at 0.125 µg/mL,[2]; [6],0%
same,inhibition at 0.25 µg/mL,[2]; [6],0%
same,inhibition at 0.5 µg/mL,[2]; [6],0%
same,inhibition at 1 µg/mL,[2]; [6],0%
same,PERCENTAGE INHIBITION (3H-hypoxanthine uptake),[2]; [7],15.2%
same,PERCENTAGE INHIBITION (3H-hypoxanthine uptake),[2]; [8],12.2%
same,PERCENTAGE INHIBITION (3H-hypoxanthine uptake),[2]; [9],100%
same,PERCENTAGE INHIBITION (3H-hypoxanthine uptake),[2]; [10],100%
same,PERCENTAGE INHIBITION (3H-hypoxanthine uptake),[2]; [11],100%
same,PERCENTAGE INHIBITION (3H-hypoxanthine uptake),[2]; [12],26.4%
same,PERCENTAGE INHIBITION (3H-hypoxanthine uptake),[2]; [13],100%
same,PERCENTAGE INHIBITION (3H-hypoxanthine uptake),[2]; [14],98.8%
same,PERCENTAGE INHIBITION (3H-hypoxanthine uptake),[2]; [15],95%
same,PERCENTAGE INHIBITION (3H-hypoxanthine uptake),[2]; [16],16.6%
same,PERCENTAGE INHIBITION (3H-hypoxanthine uptake),[2]; [17],92%
same,PERCENTAGE INHIBITION (3H-hypoxanthine uptake),[2]; [18],95%
same,PERCENTAGE INHIBITION (3H-hypoxanthine uptake),[2]; [19],100%
same,PERCENTAGE INHIBITION (3H-hypoxanthine uptake),[2]; [20],100%
same,PERCENTAGE INHIBITION (3H-hypoxanthine uptake),[2]; [21],58.6%
same,PERCENTAGE INHIBITION (3H-hypoxanthine uptake),[2]; [22],100%
same,PERCENTAGE INHIBITION (3H-hypoxanthine uptake),[2]; [23],100%
same,PERCENTAGE INHIBITION (3H-hypoxanthine uptake),[2]; [24],100%
same,PERCENTAGE INHIBITION (3H-hypoxanthine uptake),[2]; [25],100%
same,PERCENTAGE INHIBITION (3H-hypoxanthine uptake),[2]; [26],100%
same,effects of the experimental drug at low chloroquine concentrations,[2]; chloroquine 31 and 62 nM,Effects of the experimental drug was also seen
same,effect on sensitivity of chloroquine sensitive strain to chloroquine,[3]; 3H-hypoxanthine uptake,did not increase the sensitivity
same,sensitivity of chloroquine sensitive strain to B669 alone,[3]; B669 alone 0.125-1.0 μg/ml,sensitive to B669 alone
same,PERCENTAGE INHIBITION (3H-hypoxanthine uptake),[3]; [7],12.9%
same,PERCENTAGE INHIBITION (3H-hypoxanthine uptake),[3]; [8],7.4%
same,PERCENTAGE INHIBITION (3H-hypoxanthine uptake),[3]; B669 0.125 μg/ml + chloroquine 125 nM,68.3%
same,PERCENTAGE INHIBITION (3H-hypoxanthine uptake),[3]; [9],81.4%
same,PERCENTAGE INHIBITION (3H-hypoxanthine uptake),[3]; [10],100%
same,PERCENTAGE INHIBITION (3H-hypoxanthine uptake),[3]; [11],100%
same,PERCENTAGE INHIBITION (3H-hypoxanthine uptake),[3]; [27],21.0%
same,PERCENTAGE INHIBITION (3H-hypoxanthine uptake),[3]; [12],0%
same,PERCENTAGE INHIBITION (3H-hypoxanthine uptake),[3]; [28],34.9%
same,PERCENTAGE INHIBITION (3H-hypoxanthine uptake),[3]; [13],85.5%
same,PERCENTAGE INHIBITION (3H-hypoxanthine uptake),[3]; [14],100%
same,PERCENTAGE INHIBITION (3H-hypoxanthine uptake),[3]; [15],100%
same,PERCENTAGE INHIBITION (3H-hypoxanthine uptake),[3]; B669 0.5 μg/ml + chloroquine 31 nM,60.5%
same,PERCENTAGE INHIBITION (3H-hypoxanthine uptake),[3]; [16],91.7%
same,PERCENTAGE INHIBITION (3H-hypoxanthine uptake),[3]; [17],93.6%
same,PERCENTAGE INHIBITION (3H-hypoxanthine uptake),[3]; [18],100%
same,PERCENTAGE INHIBITION (3H-hypoxanthine uptake),[3]; [19],100%
same,PERCENTAGE INHIBITION (3H-hypoxanthine uptake),[3]; [20],100%
same,PERCENTAGE INHIBITION (3H-hypoxanthine uptake),[3]; [21],98.8%
same,PERCENTAGE INHIBITION (3H-hypoxanthine uptake),[3]; [22],95.9%
same,PERCENTAGE INHIBITION (3H-hypoxanthine uptake),[3]; [23],100%
same,PERCENTAGE INHIBITION (3H-hypoxanthine uptake),[3]; [24],100%
same,PERCENTAGE INHIBITION (3H-hypoxanthine uptake),[3]; [25],100%
same,PERCENTAGE INHIBITION (3H-hypoxanthine uptake),[3]; [26],100%
same,direct anti-malaria activity,[3]; especially chloroquine sensitive strain,Direct anti-malaria activity
same,inhibition at 0.125 µg/mL,[4],29.8%
same,inhibition at 0.25 µg/mL,[4],10.4%
same,inhibition at 0.5 µg/mL,[4],41.7%
same,inhibition at 1 µg/mL,[4],46.6%
same,Percentage red blood cells infected with P. falciparum (Fab-9),[5]; [7],3.9%
same,Percentage red blood cells infected with P. falciparum (Fab-9),[5]; [10],0.9%
same,Percentage red blood cells infected with P. falciparum (Fab-9),[5]; B669 0.125 μg/ml alone,4.0%
same,Percentage red blood cells infected with P. falciparum (Fab-9),[5]; [27],3.1%
same,Percentage red blood cells infected with P. falciparum (Fab-9),[5]; [28],2.9%
same,Percentage red blood cells infected with P. falciparum (Fab-9),"[5]; B669 0.25 μg/ml + chloroquine 500 nM, *parasites morphologically abnormal",0.1%
same,Percentage red blood cells infected with P. falciparum (Fab-9),[5]; B669 0.25 μg/ml alone,4.4%
same,Percentage red blood cells infected with P. falciparum (Fab-9),"[5]; B669 0.5 μg/ml + chloroquine 31 nM, *parasites morphologically abnormal",2.7%
same,Percentage red blood cells infected with P. falciparum (Fab-9),[5]; [17],3.0%
same,Percentage red blood cells infected with P. falciparum (Fab-9),"[5]; B669 0.5 μg/ml + chloroquine 500 nM, *parasites morphologically abnormal",0.1%
same,Percentage red blood cells infected with P. falciparum (Fab-9),[5]; B669 0.5 μg/ml alone,3.0%
same,Percentage red blood cells infected with P. falciparum (Fab-9),[5]; [21],2.9%
same,Percentage red blood cells infected with P. falciparum (Fab-9),[5]; [23],0.9%
same,Percentage red blood cells infected with P. falciparum (Fab-9),"[5]; B669 1.0 μg/ml + chloroquine 500 nM, *parasites morphologically abnormal",0.1%
same,Percentage red blood cells infected with P. falciparum (Fab-9),"[5]; B669 1.0 μg/ml alone, *parasites morphologically abnormal",4.1%
same,direct effect on parasite morphology,[5]; B669 alone 1.0 μg/ml,morphological deterioration of the parasites was observed
same,percentage parasitaemia versus untreated control systems,[5]; B669 alone 1.0 μg/ml,did not differ from the untreated control systems
same,effect on sensitivity of chloroquine sensitive strain to chloroquine,[5]; microscopy,did not increase the sensitivity
